Source: patent publication US20250206780A1, “CYCLIC PEPTIDES AND THEIR USE FOR THE TREATMENT OF DISEASES ASSOCIATED WITH DICARBONYLS LIKE METHYLGLYOXAL” (UNIVERSITÄT HEIDELBERG, priority 2022, published 2025)
Starred links: 1 amine or outer side, 2 acyl side, 3 side chain; linkers in the order of their positions; H or OH if unused. Positions of bridges follow the written chain, without caps; N, C: chain ends. Residues, ends and D or L forms follow the SMILES beside them. Groups on a side chain read outwards from the residue. *: point of attachment. d(γGlu) = O=C(O)[C@@H](CCC(=O)[*:2])N[*:1]; C16 diacid = O=C(O)CCCCCCCCCCCCCCC(=O)*; Dap = NC[C@H](N)C(=O)O

Key:
[1] = Bowman et al., 1996; cited from earlier work
[2] = design: species or system mice; details: mouse, in vivo
Procedure: Animals were injected with Dap3 and blood was collected into EDTA containing tubes at indicated time points with n=3 per time point. After centrifugation EDTA plasma was stored at −80° C. until analysis. Dap3 was quantified by LC MS/MS as described in section 6.
6. Detection of Dap3 and MG-Modified Dap3 by LC-MS/MS A Dap3-MG standard was prepared by incubation of Dap3 with methylglyoxal in 0.1 M phosphate buffer followed by purification by preparative HPLC. The peptide CycK(e-Hdd)R4E was employed as internal standard which was added to the standard curve and plasma samples prior to precipitation. Prior to analysis 2 parts acetonitrile were added to the plasma, vortexed and centrifuged for 10 min at 13,000 g. The supernatant was analysed using an ACQUITY UPLC I fitted with a Acquity UPLC BEH C18 column (Waters, 2.1 mm*100 mm, […]) with a pre-column (2.1×5 mm, 1.7 μm) and a Xevo TQ-XS mass spectrometer (Waters, USA). Solvent A was water+0.1% formic acid and solvent B was acetonitrile+0.1% formic acid. A linear gradient from 0-100% solvent B at a flow rate of 0.2 ml/min over 20 min and a column temperature of 30° C. was used. The detailed parameters for the quantification of Dap3, Dap3-MG and CycK(e-Hdd)R4E, are described below

Row | Structure (SMILES) | half-life [1] | plasma half-life [2]
1 | N=C(N)NN [Aminoguanidine] | very short | 
2 | NC[C@H](N)C(=O)NCCCC[C@@H]1NC(=O)[C@H](CCCCNC(=O)[C@@H](N)CN)NC(=O)[C@H](CCC(=O)O)NC(=O)[C@H](CCCCNC(=O)[C@@H](N)CN)NC(=O)[C@H](CCCCNC(=O)CC[C@@H](NC(=O)CCCCCCCCCCCCCCC(=O)O)C(=O)O)NC(=O)CC[C@@H](C(=O)O)NC1=O [Dap3] (K([d(γGlu)-C16 diacid])K(Dap)EK(Dap)K(Dap)E-OH; lactam N-6) |  | long plasma half-life
